{"source": "ChEMBL document CHEMBL3137667", "about": "“[Drug-induced liver injury; fourteenth updated edition of the bibliographic database of liver injuries and related drugs]” (Gastroenterol Clin Biol, 2004)", "key": {"[1]": {"experiment": "Highest frequency of moderate liver toxicity observed during clinical trials, expressed as a percentage. [column '% BIOL' in source]", "details": "human"}, "[2]": {"experiment": "Highest frequency of acute liver toxicity observed during clinical trials, expressed as a percentage. [column '% AIGUE' in source]", "details": "human"}, "[3]": {"experiment": "Times to onset, minimal and maximal, observed in the indexed observations. [column 'DELAI' in source]", "details": "human"}, "[4]": {"details": "human, serum"}, "[5]": {"details": "human, serum", "remark": "listed apart in the source"}, "[6]": {"details": "human"}, "[7]": {"details": "human", "remark": "listed apart in the source"}, "[8]": {"details": "human", "remark": "listed apart in the source"}, "[9]": {"details": "human, serum, 4383 h"}, "[10]": {"details": "human", "remark": "listed apart in the source"}, "[11]": {"details": "human", "remark": "listed apart in the source"}, "[12]": {"details": "human", "remark": "listed apart in the source"}, "[13]": {"details": "human", "remark": "listed apart in the source"}, "[14]": {"details": "human", "remark": "listed apart in the source"}, "[15]": {"details": "human", "remark": "listed apart in the source"}}}
{"molecule": "C=CCOc1ccccc1OCC(O)CNC(C)C", "note": "(stereo not given) [OXPRENOLOL];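 for Hepatotoxicity (association with vascular disease): count of indexed literature references reporting vascular liver injury in humans, e.g. peliosis hepatitis, hepatic veno-occlusive disease or Budd-Chiari syndrome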;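 for Hepatotoxicity (benign tumour): value is a count of indexed literature references citing a benign tumour confirmed by histopathology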;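 for Hepatotoxicity (choleostasis): human cholestatic liver injury, shown by histopathology or by peak ALT or AST elevation over alkaline phosphatase ratio below 2, value counts indexed literature reports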;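 for Hepatotoxicity (chronic liver disease): chronic liver injury confirmed by histopathology or persistently raised serum aminotransferase activity beyond 6 months, value given as the count of indexed literature references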;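 for Hepatotoxicity (cirrhosis): value is a count of indexed literature references reporting cirrhosis confirmed by histopathology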;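 for Hepatotoxicity (cytolytic): human cytolytic liver injury, shown by histopathology or by a ratio above 5 of peak ALT or AST elevation to alkaline phosphatase elevation, value counts indexed references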;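 for Hepatotoxicity (granulomatous hepatitis): value is a count of indexed literature references reporting granulomatous liver disease confirmed by histopathology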;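 for Hepatotoxicity (malignant tumour): malignant tumour confirmed by histopathology, value gives the count of indexed literature references reporting it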;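 for Hepatotoxicity (severe hepatitis): human clinical data: severe hepatitis, meaning potentially life-threatening liver failure or clinically observed cases, the value counts how many indexed literature references report it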;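 for Hepatotoxicity (steatosis): steatosis confirmed by histopathology, value is the count of indexed references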", "values": [{"measurement": "Hepatotoxicity (moderate)", "setting": "[1]; Liver", "value": 0, "unit": "%"}, {"measurement": "Hepatotoxicity (acute)", "setting": "[2]; Liver", "value": 0, "unit": "%"}, {"measurement": "Hepatotoxicity (time to onset)", "setting": "[3]", "value": 1, "unit": "day - 15 days"}, {"measurement": "Hepatotoxicity (moderate)", "setting": "[4]", "value": 1}, {"measurement": "Hepatotoxicity (acute)", "setting": "[5]", "value": 1}, {"measurement": "Hepatotoxicity (cytolytic)", "setting": "[6]; Liver", "value": 1}, {"measurement": "Hepatotoxicity (choleostasis)", "setting": "[7]; Liver", "value": 0}, {"measurement": "Hepatotoxicity (severe hepatitis)", "setting": "[8]; Liver", "value": 0}, {"measurement": "Hepatotoxicity (chronic liver disease)", "setting": "[9]", "value": 0}, {"measurement": "Hepatotoxicity (cirrhosis)", "setting": "[10]", "value": 0}, {"measurement": "Hepatotoxicity (granulomatous hepatitis)", "setting": "[11]; Liver", "value": 0}, {"measurement": "Hepatotoxicity (association with vascular disease)", "setting": "[12]", "value": 0}, {"measurement": "Hepatotoxicity (steatosis)", "setting": "[13]", "value": 0}, {"measurement": "Hepatotoxicity (malignant tumour)", "setting": "[14]", "value": 0}, {"measurement": "Hepatotoxicity (benign tumour)", "setting": "[15]", "value": 0}]}
{"molecule": "CC(=O)O[C@H]1C(=O)[C@@]2(C)[C@H]([C@H](OC(=O)c3ccccc3)[C@]3(O)C[C@H](OC(=O)[C@H](O)[C@@H](NC(=O)c4ccccc4)c4ccccc4)C(C)=C1C3(C)C)[C@]1(OC(C)=O)CO[C@@H]1C[C@@H]2O", "note": "[PACLITAXEL]", "values": [{"measurement": "Hepatotoxicity (moderate)", "setting": "[1]; Liver", "value": 50, "unit": "%"}, {"measurement": "Hepatotoxicity (acute)", "setting": "[2]; Liver", "value": 6, "unit": "%"}, {"measurement": "Hepatotoxicity (time to onset)", "setting": "[3]", "value": 1, "unit": "days"}, {"measurement": "Hepatotoxicity (moderate)", "setting": "[4]", "value": 7}, {"measurement": "Hepatotoxicity (acute)", "setting": "[5]", "value": 5}, {"measurement": "Hepatotoxicity (cytolytic)", "setting": "[6]; Liver", "value": 3}, {"measurement": "Hepatotoxicity (choleostasis)", "setting": "[7]; Liver", "value": 0}, {"measurement": "Hepatotoxicity (severe hepatitis)", "setting": "[8]; Liver", "value": 0}, {"measurement": "Hepatotoxicity (chronic liver disease)", "setting": "[9]", "value": 0}, {"measurement": "Hepatotoxicity (cirrhosis)", "setting": "[10]", "value": 0}, {"measurement": "Hepatotoxicity (granulomatous hepatitis)", "setting": "[11]; Liver", "value": 0}, {"measurement": "Hepatotoxicity (association with vascular disease)", "setting": "[12]", "value": 0}, {"measurement": "Hepatotoxicity (steatosis)", "setting": "[13]", "value": 0}, {"measurement": "Hepatotoxicity (malignant tumour)", "setting": "[14]", "value": 0}, {"measurement": "Hepatotoxicity (benign tumour)", "setting": "[15]", "value": 0}]}
{"molecule": "COc1ccnc(C[S+]([O-])c2nc3ccc(OC(F)F)cc3[nH]2)c1OC", "note": "(stereo not given) [PANTOPRAZOLE]", "values": [{"measurement": "Hepatotoxicity (moderate)", "setting": "[1]", "value": 8.3, "unit": "%"}, {"measurement": "Hepatotoxicity (acute)", "setting": "[2]", "value": 0, "unit": "%"}, {"measurement": "Hepatotoxicity (time to onset)", "setting": "[3]", "value": 2, "unit": "days - 8 days"}, {"measurement": "Hepatotoxicity (moderate)", "setting": "[4]", "value": 13}, {"measurement": "Hepatotoxicity (acute)", "setting": "[5]", "value": 2}, {"measurement": "Hepatotoxicity (cytolytic)", "setting": "[6]", "value": 2}, {"measurement": "Hepatotoxicity (choleostasis)", "setting": "[7]", "value": 0}, {"measurement": "Hepatotoxicity (severe hepatitis)", "setting": "[8]", "value": 1}, {"measurement": "Hepatotoxicity (chronic liver disease)", "setting": "[9]", "value": 0}, {"measurement": "Hepatotoxicity (cirrhosis)", "setting": "[10]", "value": 0}, {"measurement": "Hepatotoxicity (granulomatous hepatitis)", "setting": "[11]", "value": 0}, {"measurement": "Hepatotoxicity (association with vascular disease)", "setting": "[12]", "value": 0}, {"measurement": "Hepatotoxicity (steatosis)", "setting": "[13]", "value": 0}, {"measurement": "Hepatotoxicity (malignant tumour)", "setting": "[14]", "value": 0}, {"measurement": "Hepatotoxicity (benign tumour)", "setting": "[15]", "value": 0}]}
{"molecule": "OC[C@H]1O[C@@H](n2cnc3c2NC=NC[C@H]3O)C[C@@H]1O", "note": "[PENTOSTATIN]", "values": [{"measurement": "Hepatotoxicity (moderate)", "setting": "[1]", "value": 81.3, "unit": "%"}, {"measurement": "Hepatotoxicity (acute)", "setting": "[2]", "value": 0, "unit": "%"}, {"measurement": "Hepatotoxicity (time to onset)", "setting": "[3]", "value": 1, "unit": "day - 2 months"}, {"measurement": "Hepatotoxicity (moderate)", "setting": "[4]", "value": 16}, {"measurement": "Hepatotoxicity (acute)", "setting": "[5]", "value": 1}, {"measurement": "Hepatotoxicity (cytolytic)", "setting": "[6]", "value": 1}, {"measurement": "Hepatotoxicity (choleostasis)", "setting": "[7]", "value": 0}, {"measurement": "Hepatotoxicity (severe hepatitis)", "setting": "[8]", "value": 2}, {"measurement": "Hepatotoxicity (chronic liver disease)", "setting": "[9]", "value": 0}, {"measurement": "Hepatotoxicity (cirrhosis)", "setting": "[10]", "value": 0}, {"measurement": "Hepatotoxicity (granulomatous hepatitis)", "setting": "[11]", "value": 0}, {"measurement": "Hepatotoxicity (association with vascular disease)", "setting": "[12]", "value": 0}, {"measurement": "Hepatotoxicity (steatosis)", "setting": "[13]", "value": 1}, {"measurement": "Hepatotoxicity (malignant tumour)", "setting": "[14]", "value": 0}, {"measurement": "Hepatotoxicity (benign tumour)", "setting": "[15]", "value": 0}]}
{"molecule": "CC(=O)CCCCn1c(=O)c2c(ncn2C)n(C)c1=O", "note": "[PENTOXIFYLLINE]", "values": [{"measurement": "Hepatotoxicity (moderate)", "setting": "[1]", "value": 0, "unit": "%"}, {"measurement": "Hepatotoxicity (acute)", "setting": "[2]", "value": 0, "unit": "%"}, {"measurement": "Hepatotoxicity (time to onset)", "setting": "[3]", "value": 3, "unit": "weeks"}, {"measurement": "Hepatotoxicity (moderate)", "setting": "[4]", "value": 0}, {"measurement": "Hepatotoxicity (acute)", "setting": "[5]", "value": 2}, {"measurement": "Hepatotoxicity (cytolytic)", "setting": "[6]", "value": 0}, {"measurement": "Hepatotoxicity (choleostasis)", "setting": "[7]", "value": 2}, {"measurement": "Hepatotoxicity (severe hepatitis)", "setting": "[8]", "value": 0}, {"measurement": "Hepatotoxicity (chronic liver disease)", "setting": "[9]", "value": 0}, {"measurement": "Hepatotoxicity (cirrhosis)", "setting": "[10]", "value": 0}, {"measurement": "Hepatotoxicity (granulomatous hepatitis)", "setting": "[11]", "value": 0}, {"measurement": "Hepatotoxicity (association with vascular disease)", "setting": "[12]", "value": 0}, {"measurement": "Hepatotoxicity (steatosis)", "setting": "[13]", "value": 0}, {"measurement": "Hepatotoxicity (malignant tumour)", "setting": "[14]", "value": 0}, {"measurement": "Hepatotoxicity (benign tumour)", "setting": "[15]", "value": 0}]}
{"molecule": "CCC[C@H](N[C@@H](C)C(=O)N1[C@H](C(=O)O)C[C@@H]2CCCC[C@@H]21)C(=O)OCC", "note": "[PERINDOPRIL]", "values": [{"measurement": "Hepatotoxicity (moderate)", "setting": "[1]", "value": 12.2, "unit": "%"}, {"measurement": "Hepatotoxicity (acute)", "setting": "[2]", "value": 0, "unit": "%"}, {"measurement": "Hepatotoxicity (time to onset)", "setting": "[3]", "value": 3, "unit": "weeks"}, {"measurement": "Hepatotoxicity (moderate)", "setting": "[4]", "value": 1}, {"measurement": "Hepatotoxicity (acute)", "setting": "[5]", "value": 1}, {"measurement": "Hepatotoxicity (cytolytic)", "setting": "[6]", "value": 1}, {"measurement": "Hepatotoxicity (choleostasis)", "setting": "[7]", "value": 0}, {"measurement": "Hepatotoxicity (severe hepatitis)", "setting": "[8]", "value": 0}, {"measurement": "Hepatotoxicity (chronic liver disease)", "setting": "[9]", "value": 0}, {"measurement": "Hepatotoxicity (cirrhosis)", "setting": "[10]", "value": 0}, {"measurement": "Hepatotoxicity (granulomatous hepatitis)", "setting": "[11]", "value": 0}, {"measurement": "Hepatotoxicity (association with vascular disease)", "setting": "[12]", "value": 0}, {"measurement": "Hepatotoxicity (steatosis)", "setting": "[13]", "value": 0}, {"measurement": "Hepatotoxicity (malignant tumour)", "setting": "[14]", "value": 0}, {"measurement": "Hepatotoxicity (benign tumour)", "setting": "[15]", "value": 0}]}
{"molecule": "OCCN1CCN(CCCN2c3ccccc3Sc3ccc(Cl)cc32)CC1", "note": "[PERPHENAZINE]", "values": [{"measurement": "Hepatotoxicity (moderate)", "setting": "[1]", "value": 23.4, "unit": "%"}, {"measurement": "Hepatotoxicity (acute)", "setting": "[2]", "value": 0.3, "unit": "%"}, {"measurement": "Hepatotoxicity (time to onset)", "setting": "[3]", "value": 2, "unit": "months"}, {"measurement": "Hepatotoxicity (moderate)", "setting": "[4]", "value": 2}, {"measurement": "Hepatotoxicity (acute)", "setting": "[5]", "value": 5}, {"measurement": "Hepatotoxicity (cytolytic)", "setting": "[6]", "value": 1}, {"measurement": "Hepatotoxicity (choleostasis)", "setting": "[7]", "value": 4}, {"measurement": "Hepatotoxicity (severe hepatitis)", "setting": "[8]", "value": 0}, {"measurement": "Hepatotoxicity (chronic liver disease)", "setting": "[9]", "value": 0}, {"measurement": "Hepatotoxicity (cirrhosis)", "setting": "[10]", "value": 0}, {"measurement": "Hepatotoxicity (granulomatous hepatitis)", "setting": "[11]", "value": 0}, {"measurement": "Hepatotoxicity (association with vascular disease)", "setting": "[12]", "value": 0}, {"measurement": "Hepatotoxicity (steatosis)", "setting": "[13]", "value": 0}, {"measurement": "Hepatotoxicity (malignant tumour)", "setting": "[14]", "value": 0}, {"measurement": "Hepatotoxicity (benign tumour)", "setting": "[15]", "value": 0}]}
